Experiments:
full length human TREX1 = full length human TREX1 (Homo sapiens (Human), UniProt Q9NSU2); assay: TREX1 Biochemical Assay (fluorescence assay measuring degradation of dsDNA substrate); conditions: 150 pM TREX1, 60 nM dsDNA substrate, 25 minutes at room temperature
How it was run: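 His-Tev-tagged full-length human TREX1 expressed in E. coli, 150 pM final, with 60 nM TEX615/quencher-labelled 9-mer dsDNA in Tris pH 7.4, NaCl, DTT, BSA, Tween-20, MgCl2 and 1.0% DMSO; 25 min at room temperature, EDTA-quenched. Fluorescence 615 nm (excitation 570 nm); 10-point IC50 by four-parameter fit against pre-quenched and no-inhibitor controls.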

[1] = target: human TREX2 (residues M44-A279) (Homo sapiens (Human), UniProt Q9BQ50); assay: TREX2 Biochemical Assay (fluorescence assay measuring degradation of dsDNA substrate); conditions: 2.5 nM TREX2, 60 nM dsDNA substrate, 25 minutes at room temperature
How it was run: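 Final conditions: 2.5 nM His-Tev-tagged TREX2 (E. coli-expressed), 60 nM fluorophore/quencher-labelled dsDNA, 50 mM Tris pH 7.4, 150 mM NaCl, 100 mM MgCl2, 1% DMSO; 10-point compound dose-response. Incubated 25 min at room temperature, then EDTA-quenched; fluorescence read at ex 570/em 615 nm. IC50 from four-parameter fit against pre-quenched and no-inhibitor controls.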

Sequence of human TREX2 (residues M44-A279) (Q9BQ50 whole entry, the tested form may be a part): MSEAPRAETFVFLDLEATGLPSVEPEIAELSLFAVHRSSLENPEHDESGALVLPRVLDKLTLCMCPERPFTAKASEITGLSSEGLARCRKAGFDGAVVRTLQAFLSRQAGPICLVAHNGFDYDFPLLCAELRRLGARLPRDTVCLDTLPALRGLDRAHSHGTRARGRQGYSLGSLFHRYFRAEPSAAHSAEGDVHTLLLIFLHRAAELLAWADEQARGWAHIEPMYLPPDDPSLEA
Sequence of full length human TREX1 (Q9NSU2 whole entry): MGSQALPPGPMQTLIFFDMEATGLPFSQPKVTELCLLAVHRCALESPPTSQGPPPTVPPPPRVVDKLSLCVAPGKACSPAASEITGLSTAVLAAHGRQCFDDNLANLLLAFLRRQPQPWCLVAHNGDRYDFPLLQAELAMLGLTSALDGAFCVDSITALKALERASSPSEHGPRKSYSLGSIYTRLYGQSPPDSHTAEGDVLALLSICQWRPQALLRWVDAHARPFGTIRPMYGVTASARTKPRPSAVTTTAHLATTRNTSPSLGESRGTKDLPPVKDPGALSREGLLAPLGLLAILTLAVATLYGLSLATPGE

Compound: Cn1c(-c2cccc(Br)c2CCO)nc(C(=O)Nc2cnoc2)c(O)c1=O [Example 78, 2-(3-bromo-2-(2-hydroxyethyl)phenyl)-5-hydroxy-N-(isoxazol-4-yl)-1-methyl-6-oxo-1,6-dihydropyrimidine-4-carboxamide]
- IC50 (full length human TREX1): < 100 nM
- IC50 [1]: 1000 to 10000 nM

Compound: C[C@H](Cc1ccccc1)c1nc(C(=O)Nc2cnoc2)c(O)c(=O)n1C [Example 79, (R)-5-hydroxy-N-(isoxazol-4-yl)-1-methyl-6-oxo-2-(1-phenylpropan-2-yl)-1,6-dihydropyrimidine-4-carboxamide]
- IC50 (full length human TREX1): < 100 nM
- IC50 [1]: 1000 to 10000 nM

Compound: C[C@@H](Cc1ccccc1)c1nc(C(=O)Nc2cnoc2)c(O)c(=O)n1C [Example 80, (S)-5-hydroxy-N-(isoxazol-4-yl)-1-methyl-6-oxo-2-(1-phenylpropan-2-yl)-1,6-dihydropyrimidine-4-carboxamide]
- IC50 (full length human TREX1): < 100 nM
- IC50 [1]: 1000 to 10000 nM

Compound: Cn1c([C@H]2CCC[C@@H](NC(=O)c3ccc(Cl)c(Cl)c3)C2)nc(C(=O)Nc2cnoc2)c(O)c1=O [Example 82, 2-((1S,3R)-3-(3,4-dichlorobenzamido)cyclohexyl)-5-hydroxy-N-(isoxazol-4-yl)-1-methyl-6-oxo-1,6-dihydropyrimidine-4-carboxamide]
- IC50 (full length human TREX1): 1000 to 10000 nM
- IC50 [1]: 10000 to 100000 nM

Compound: C[C@@H]1CC[C@H](c2nc(C(=O)Nc3cnoc3)c(O)c(=O)n2C)CN1C(=O)c1ccc(Cl)c(Cl)c1 [Example 83, 2-((3S,6R)-1-(3,4-dichlorobenzoyl)-6-methylpiperidin-3-yl)-5-hydroxy-N-(isoxazol-4-yl)-1-methyl-6-oxo-1,6-dihydropyrimidine-4-carboxamide]
- IC50 (full length human TREX1): 1000 to 10000 nM
- IC50 [1]: 10000 to 100000 nM

Compound: C[C@H]1CC[C@H](c2nc(C(=O)Nc3cnoc3)c(O)c(=O)n2C)CN1C(=O)c1ccc(Cl)c(Cl)c1 [Example 84, 2-((3S,6S)-1-(3,4-dichlorobenzoyl)-6-methylpiperidin-3-yl)-5-hydroxy-N-(isoxazol-4-yl)-1-methyl-6-oxo-1,6-dihydropyrimidine-4-carboxamide]
- IC50 (full length human TREX1): < 100 nM
- IC50 [1]: 1000 to 10000 nM

Compound: Cn1c([C@H]2CCN(C(=O)c3ccc(Cl)cc3)C2)nc(C(=O)Nc2cnoc2)c(O)c1=O [Example 85, (S)-2-(1-(4-chlorobenzoyl)pyrrolidin-3-yl)-5-hydroxy-N-(isoxazol-4-yl)-1-methyl-6-oxo-1,6-dihydropyrimidine-4-carboxamide]
- IC50 (full length human TREX1): 100 to 1000 nM
- IC50 [1]: 10000 to 100000 nM

Compound: Cn1c([C@@H]2CCN(C(=O)c3ccc(Cl)cc3)C2)nc(C(=O)Nc2cnoc2)c(O)c1=O [Example 86, (R)-2-(1-(4-chlorobenzoyl)pyrrolidin-3-yl)-5-hydroxy-N-(isoxazol-4-yl)-1-methyl-6-oxo-1,6-dihydropyrimidine-4-carboxamide]
- IC50 (full length human TREX1): 100 to 1000 nM
- IC50 [1]: 10000 to 100000 nM

Compound: Cn1c(C2CCCN(S(C)(=O)=O)C2)nc(C(=O)Nc2cnoc2)c(O)c1=O (centres unmarked) [Example 87, 5-hydroxy-N-(isoxazol-4-yl)-1-methyl-2-(1-(methylsulfonyl)piperidin-3-yl)-6-oxo-1,6-dihydropyrimidine-4-carboxamide]
- IC50 (full length human TREX1): 1000 to 10000 nM
- IC50 [1]: 10000 to 100000 nM

Compound: Cn1c([C@H]2CCCN(C(=O)c3ccc(F)c(Cl)c3)C2)nc(C(=O)Nc2cnoc2)c(O)c1=O [Example 88, (S)-2-(1-(3-chloro-4-fluorobenzoyl)piperidin-3-yl)-5-hydroxy-N-(isoxazol-4-yl)-1-methyl-6-oxo-1,6-dihydropyrimidine-4-carboxamide]
- IC50 (full length human TREX1): < 100 nM
- IC50 [1]: 1000 to 10000 nM

Compound: Cn1c([C@H]2CCCN(C(=O)Cc3ccc(F)c(F)c3)C2)nc(C(=O)Nc2cnoc2)c(O)c1=O [Example 91, (S)-2-(1-(2-(3,4-difluorophenyl)acetyl)piperidin-3-yl)-5-hydroxy-N-(isoxazol-4-yl)-1-methyl-6-oxo-1,6-dihydropyrimidine-4-carboxamide]
- IC50 (full length human TREX1): 100 to 1000 nM
- IC50 [1]: 10000 to 100000 nM

Compound: Cn1c([C@H]2CCCN(S(=O)(=O)c3ccc(Cl)c(Cl)c3)C2)nc(C(=O)Nc2cnoc2)c(O)c1=O [Example 92, (S)-2-(1-((3,4-dichlorophenyl)sulfonyl)piperidin-3-yl)-5-hydroxy-N-(isoxazol-4-yl)-1-methyl-6-oxo-1,6-dihydropyrimidine-4-carboxamide]
- IC50 (full length human TREX1): 100 to 1000 nM
- IC50 [1]: 10000 to 100000 nM

Compound: Cn1c(C2CCCN(C(=O)c3cccnc3)C2)nc(C(=O)Nc2cnoc2)c(O)c1=O (centres unmarked) [Example 93, 5-hydroxy-N-(isoxazol-4-yl)-1-methyl-2-(1-nicotinoylpiperidin-3-yl)-6-oxo-1,6-dihydropyrimidine-4-carboxamide]
- IC50 (full length human TREX1): 100 to 1000 nM
- IC50 [1]: 1000 to 10000 nM

Compound: Cn1c(C2CCCN(C(=O)c3cn[nH]c3)C2)nc(C(=O)Nc2cnoc2)c(O)c1=O (centres unmarked) [Example 94, 2-(1-(1H-pyrazole-4-carbonyl)piperidin-3-yl)-5-hydroxy-N-(isoxazol-4-yl)-1-methyl-6-oxo-1,6-dihydropyrimidine-4-carboxamide]
- IC50 (full length human TREX1): 100 to 1000 nM
- IC50 [1]: 10000 to 100000 nM

Compound: CC(C)CNC(=O)N1CCCC(c2nc(C(=O)Nc3cnoc3)c(O)c(=O)n2C)C1 (centres unmarked) [Example 95]
- IC50 (full length human TREX1): 100 to 1000 nM
- IC50 [1]: 10000 to 100000 nM

Compound: CC(C)C(=O)N1CCCC(c2nc(C(=O)Nc3cnoc3)c(O)c(=O)n2C)C1 (centres unmarked) [Example 96, 5-hydroxy-2-(1-isobutyrylpiperidin-3-yl)-N-(isoxazol-4-yl)-1-methyl-6-oxo-1,6-dihydropyrimidine-4-carboxamide]
- IC50 (full length human TREX1): 100 to 1000 nM
- IC50 [1]: 10000 to 100000 nM

Compound: Cn1c([C@H]2CCCN(C(=O)c3ccc(Cl)c(Cl)c3)C2)nc(C(=O)Nc2cnoc2)c(O)c1=O [Example 97, (S)-2-(1-(3,4-dichlorobenzoyl)piperidin-3-yl)-5-hydroxy-N-(isoxazol-4-yl)-1-methyl-6-oxo-1,6-dihydropyrimidine-4-carboxamide]
- IC50 (full length human TREX1): < 100 nM
- IC50 [1]: < 1000 nM

Compound: Cn1c(C2CCCN(CC(F)(F)F)C2)nc(C(=O)Nc2cnoc2)c(O)c1=O (centres unmarked) [Example 98, 5-hydroxy-N-(isoxazol-4-yl)-1-methyl-6-oxo-2-(1-(2,2,2-trifluoroethyl)piperidin-3-yl)-1,6-dihydropyrimidine-4-carboxamide]
- IC50 (full length human TREX1): 100 to 1000 nM
- IC50 [1]: 10000 to 100000 nM

Compound: Cn1c(N2CCN(C(=O)c3ccccc3)CC2)nc(C(=O)Nc2cnoc2)c(O)c1=O [Example 100, 2-(4-benzoylpiperazin-1-yl)-5-hydroxy-N-(isoxazol-4-yl)-1-methyl-6-oxo-1,6-dihydropyrimidine-4-carboxamide]
- IC50 (full length human TREX1): 100 to 1000 nM
- IC50 [1]: 10000 to 100000 nM

Compound: Cn1c(N2CCC[C@H](c3ccccn3)C2)nc(C(=O)Nc2cnoc2)c(O)c1=O [Example 101, (S)-5-hydroxy-N-(isoxazol-4-yl)-1-methyl-6-oxo-2-(3-(pyridin-2-yl)piperidin-1-yl)-1,6-dihydropyrimidine-4-carboxamide]
- IC50 (full length human TREX1): 100 to 1000 nM
- IC50 [1]: 10000 to 100000 nM

Compound: Cn1c(N2CCC[C@@H]2c2cccnc2)nc(C(=O)Nc2cnoc2)c(O)c1=O [Example 102, (R)-5-hydroxy-N-(isoxazol-4-yl)-1-methyl-6-oxo-2-(2-(pyridin-3-yl)pyrrolidin-1-yl)-1,6-dihydropyrimidine-4-carboxamide]
- IC50 (full length human TREX1): 100 to 1000 nM
- IC50 [1]: 10000 to 100000 nM

Compound: Cn1c(N2CCC[C@H]2c2ccncc2)nc(C(=O)Nc2cnoc2)c(O)c1=O [Example 103, (S)-5-hydroxy-N-(isoxazol-4-yl)-1-methyl-6-oxo-2-(2-(pyridin-4-yl)pyrrolidin-1-yl)-1,6-dihydropyrimidine-4-carboxamide]
- IC50 (full length human TREX1): 100 to 1000 nM
- IC50 [1]: 10000 to 100000 nM

Compound: Cn1c([C@H]2CCCCN2CCO)nc(C(=O)Nc2cnoc2)c(O)c1=O [Example 104, (R)-5-hydroxy-2-(1-(2-hydroxyethyl)piperidin-2-yl)-N-(isoxazol-4-yl)-1-methyl-6-oxo-1,6-dihydropyrimidine-4-carboxamide]
- IC50 (full length human TREX1): 1000 to 10000 nM
- IC50 [1]: > 100000 nM

Compound: Cn1c(N2CCCC[C@H]2CCO)nc(C(=O)Nc2cnoc2)c(O)c1=O [Example 106, (S)-5-hydroxy-2-(2-(2-hydroxyethyl)piperidin-1-yl)-N-(isoxazol-4-yl)-1-methyl-6-oxo-1,6-dihydropyrimidine-4-carboxamide]
- IC50 (full length human TREX1): 100 to 1000 nM
- IC50 [1]: 10000 to 100000 nM

Compound: Cn1c(N2CCCC[C@@H]2CCO)nc(C(=O)Nc2cnoc2)c(O)c1=O [Example 107, (R)-5-hydroxy-2-(2-(2-hydroxyethyl)piperidin-1-yl)-N-(isoxazol-4-yl)-1-methyl-6-oxo-1,6-dihydropyrimidine-4-carboxamide]
- IC50 (full length human TREX1): < 100 nM
- IC50 [1]: 1000 to 10000 nM

Compound: Cn1c(N2CC[C@H](c3ccccc3)C2)nc(C(=O)Nc2cnoc2)c(O)c1=O [Example 108, (R)-5-hydroxy-N-(isoxazol-4-yl)-1-methyl-6-oxo-2-(3-phenylpyrrolidin-1-yl)-1,6-dihydropyrimidine-4-carboxamide]
- IC50 (full length human TREX1): < 100 nM
- IC50 [1]: 10000 to 100000 nM

Compound: Cn1c(N2CC[C@@H](c3ccccc3)C2)nc(C(=O)Nc2cnoc2)c(O)c1=O [Example 109, (S)-5-hydroxy-N-(isoxazol-4-yl)-1-methyl-6-oxo-2-(3-phenylpyrrolidin-1-yl)-1,6-dihydropyrimidine-4-carboxamide]
- IC50 (full length human TREX1): < 100 nM
- IC50 [1]: 10000 to 100000 nM

Compound: CN(C)C(=O)[C@H]1CCCN1c1nc(C(=O)Nc2cnoc2)c(O)c(=O)n1C [Example 110, (R)-2-(2-(dimethylcarbamoyl)pyrrolidin-1-yl)-5-hydroxy-N-(isoxazol-4-yl)-1-methyl-6-oxo-1,6-dihydropyrimidine-4-carboxamide]
- IC50 (full length human TREX1): 100 to 1000 nM
- IC50 [1]: 10000 to 100000 nM
